These compounds were tested against T1, Human TRPC6 (Homo sapiens, UniProt Q9Y210) (assay: Evaluation of TRPC6 channel inhibitory activity (1), FLIPR Calcium 5 Assay Kit, OAG stimulation (Compound Nos. 1-1293)). Conditions: Human TRPC6 stably-expressing cells, OAG 30 μM, FLIPR Calcium 5 Assay Kit; read-out: Inhibitory activity (pIC50 class) (converted).
T1 construct: expressed in transfected cells
T1 sequence (Q9Y210 1-931): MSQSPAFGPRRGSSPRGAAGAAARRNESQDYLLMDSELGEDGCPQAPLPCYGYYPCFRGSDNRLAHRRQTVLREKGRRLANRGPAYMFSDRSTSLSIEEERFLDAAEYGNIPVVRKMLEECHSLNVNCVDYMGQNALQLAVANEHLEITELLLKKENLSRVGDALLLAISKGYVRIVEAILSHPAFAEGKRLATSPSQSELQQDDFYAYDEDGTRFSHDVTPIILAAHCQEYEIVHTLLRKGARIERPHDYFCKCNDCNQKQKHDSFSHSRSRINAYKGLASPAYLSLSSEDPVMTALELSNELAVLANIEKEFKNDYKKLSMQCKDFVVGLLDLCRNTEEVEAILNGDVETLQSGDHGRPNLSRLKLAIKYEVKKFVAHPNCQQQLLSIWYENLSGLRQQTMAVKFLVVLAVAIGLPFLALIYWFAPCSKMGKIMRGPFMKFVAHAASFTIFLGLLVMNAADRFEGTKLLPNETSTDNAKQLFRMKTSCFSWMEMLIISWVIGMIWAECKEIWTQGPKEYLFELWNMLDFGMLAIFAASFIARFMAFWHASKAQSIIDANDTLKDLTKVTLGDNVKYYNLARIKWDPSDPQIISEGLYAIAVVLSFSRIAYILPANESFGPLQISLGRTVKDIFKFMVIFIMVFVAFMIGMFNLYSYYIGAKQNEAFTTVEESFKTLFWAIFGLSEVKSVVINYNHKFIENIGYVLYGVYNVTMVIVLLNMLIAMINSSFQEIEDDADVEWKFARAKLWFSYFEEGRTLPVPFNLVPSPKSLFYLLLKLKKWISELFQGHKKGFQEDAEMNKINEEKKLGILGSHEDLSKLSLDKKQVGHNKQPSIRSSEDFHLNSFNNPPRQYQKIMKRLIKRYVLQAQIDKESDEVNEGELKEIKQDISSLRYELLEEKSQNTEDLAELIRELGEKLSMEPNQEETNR
Assay type: cell-based
Method in brief: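 Cells stably expressing human TRPC6, plated 24 h before, were loaded 30 min with Calcium 5 dye plus probenecid in HEPES-HBSS. Compound was added 20 min before OAG (30 μM final) and fluorescence tracked on FLIPR. Inhibition normalised to no-compound and no-compound/no-OAG wells; pIC50 from four-parameter fit, reported as +/++/+++ categories.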

Compound	IC50 [nM]
Cc1nc(Oc2cc(C#N)ccc2-n2ncc3c2CNCC3)cc(N2CCCCC2)n1 [compound 747, 3-(2-methyl-6-piperidin-1-ylpyrimidin-4-yl)oxy-4-(4,5,6,7-tetrahydropyrazolo[3,4-c]pyridin-1-yl)benzonitrile]	> 1000
Cc1nn(CC(C)C)cc1Oc1cc(C#N)ccc1-c1ncc(CCN)cn1 [compound 801, 4-[5-(2-aminoethyl)pyrimidin-2-yl]-3-[3-methyl-1-(2-methylpropyl)pyrazol-4-yl]oxybenzonitrile]	< 10
Cc1nc(NCC(F)(F)F)cc(Oc2cc(C#N)ccc2-c2ncc(CN)cn2)n1 [compound 640, 4-[5-(aminomethyl)pyrimidin-2-yl]-3-[2-methyl-6-(2,2,2-trifluoroethylamino)pyrimidin-4-yl]oxybenzonitrile]	10 to 1000
Cn1nc(C2CC2)cc1Oc1cc(C#N)ccc1-c1ccc(C[C@H](N)C(=O)O)cn1 [compound 612, (2S)-2-amino-3-[6-[4-cyano-2-(5-cyclopropyl-2-methylpyrazol-3-yl)oxyphenyl]pyridin-3-yl]propanoic acid]	> 1000
N#Cc1ccc(-c2ccc(CN)cn2)c(Sc2cnnc(N3CCCC3)c2)c1 [compound 1264, 4-[5-(aminomethyl)pyridin-2-yl]-3-(6-pyrrolidin-1-ylpyridazin-4-yl)sulfanylbenzonitrile]	10 to 1000
CC(C)CNc1cc(Sc2cc(C#N)ccc2-c2ncc(CN)cn2)cnn1 [compound 1273, 4-[5-(aminomethyl)pyrimidin-2-yl]-3-[6-(2-methylpropylamino)pyridazin-4-yl]sulfanylbenzonitrile]	10 to 1000
Cc1nc(Oc2cc(C#N)ccc2-n2cc([C@@H](O)CN)cn2)cc(-c2ccccc2C)n1 [compound 358, 4-[4-[(1R)-2-amino-1-hydroxyethyl]pyrazol-1-yl]-3-[2-methyl-6-(2-methylphenyl)pyrimidin-4-yl]oxybenzonitrile]	10 to 1000
CN(CC(F)F)c1cc(Oc2cc(C#N)ccc2-c2ncc(CCN)cn2)n(C)n1 [compound 786, 4-[5-(2-aminoethyl)pyrimidin-2-yl]-3-[5-[2,2-difluoroethyl(methyl)amino]-2-methylpyrazol-3-yl]oxybenzonitrile]	< 10
Cn1nc(C2CC2)cc1Oc1cc(C#N)ccc1-c1ccc(C(=O)CN)cc1 [Compound 214, 4-[4-(2-aminoacetyl)phenyl]-3-(5-cyclopropyl-2-methylpyrazol-3-yl)oxybenzonitrile]	10 to 1000
Cc1nc(Oc2cc(C#N)ccc2-c2ccc(CCN)cc2)cc(-c2ccccc2C(F)(F)F)n1 [Compound 23, 4-[4-(2-aminoethyl)phenyl]-3-[2-methyl-6-[2-(trifluoromethyl)phenyl]pyrimidin-4-yl]oxybenzonitrile]	10 to 1000
Cc1nc(Oc2cc(C#N)ccc2-n2cc([C@@H](O)CNCC#N)cn2)cc(-c2ccccc2)n1 [Compound 279, 4-[4-[(1R)-2-(cyanomethylamino)-1-hydroxyethyl]pyrazol-1-yl]-3-(2-methyl-6-phenylpyrimidin-4-yl)oxybenzonitrile]	> 1000
C[C@H](N)c1cnc(-c2ccc(C#N)cc2Oc2cc(-c3ccccn3)nn2C)nc1 [compound 809, 4-[5-[(1S)-1-aminoethyl]pyrimidin-2-yl]-3-(2-methyl-5-pyridin-2-ylpyrazol-3-yl)oxybenzonitrile]	< 10
N#Cc1ccc(-n2cc(CCN)cn2)c(Oc2cnnc(N3CCOCC3)c2)c1 [Compound 282, 4-[4-(2-aminoethyl)pyrazol-1-yl]-3-(6-morpholin-4-ylpyridazin-4-yl)oxybenzonitrile]	10 to 1000
Cc1cc(Oc2cc(C#N)ccc2-c2ccc([C@H](O)CN)cn2)cc(N2CCO[C@@H](C)C2)n1 [compound 529, 4-[5-[(1S)-2-amino-1-hydroxyethyl]pyridin-2-yl]-3-[2-methyl-6-[(2S)-2-methylmorpholin-4-yl]pyridin-4-yl]oxybenzonitrile]	< 10
Cc1c(Oc2cc(C#N)ccc2-c2ncc(CCN)cn2)cnn1C(C)C [compound 806, 4-[5-(2-aminoethyl)pyrimidin-2-yl]-3-(5-methyl-1-propan-2-ylpyrazol-4-yl)oxybenzonitrile]	10 to 1000
CN(CC(F)F)c1cc(Oc2cc(F)ccc2-c2ncc(CCN)cn2)n(C)n1 [compound 987, 5-[2-[5-(2-aminoethyl)pyrimidin-2-yl]-5-fluorophenoxy]-N-(2,2-difluoroethyl)-N,1-dimethylpyrazole-3-amine]	< 10

Compound	IC50 [nM]
Cn1nc(C(F)(F)F)cc1Oc1cc(C#N)ccc1-c1ncc([C@@H](F)CN)cn1 [compound 904, 4-[5-[(1R)-2-amino-1-fluoroethyl]pyrimidin-2-yl]-3-[2-methyl-5-(trifluoromethyl)pyrazol-3-yl]oxybenzonitrile]	< 10
Cc1cc(Oc2cc(C#N)ccc2-c2ncc(CNCC(N)=O)cn2)cc(-c2ccccn2)n1 [compound 841, 2-[[2-[4-cyano-2-(2-methyl-6-pyridin-2-ylpyridin-4-yl)oxyphenyl]pyrimidin-5-yl]methylamino]acetamide]	> 1000
N#Cc1ccc(-c2ccc(CCN)cc2)c(Oc2cnnc(-c3ccccc3O)c2)c1 [Compound 70, 4-[4-(2-aminoethyl)phenyl]-3-[6-(2-hydroxyphenyl)pyridazin-4-yl]oxybenzonitrile]	< 10
CC(C)c1cc(Oc2cc(C#N)ccc2-c2ccc(CN)cn2)n(C)n1 [compound 362, 4-[5-(aminomethyl)pyridin-2-yl]-3-(2-methyl-5-propan-2-ylpyrazol-3-yl)oxybenzonitrile]	< 10
Cc1cc(Oc2cc(C#N)ccc2-c2cnc(CN)s2)cc(N2CCOCC2)n1 [compound 607, 4-[2-(aminomethyl)-1,3-thiazol-5-yl]-3-(2-methyl-6-morpholin-4-ylpyridin-4-yl)oxybenzonitrile]	> 1000
N#Cc1ccc(-c2ccc(CCN)cc2)c(Sc2cnnc(N3CCCC3)c2)c1 [compound 1241, 4-[4-(2-aminoethyl)phenyl]-3-(6-pyrrolidin-1-ylpyridazin-4-yl)sulfanylbenzonitrile]	< 10
Cn1nc(C2CC2)cc1Oc1cc(F)ccc1-c1ccc(CCN)cn1 [compound 1018, 2-[6-[2-(5-cyclopropyl-2-methylpyrazol-3-yl)oxy-4-fluorophenyl]pyridin-3-yl]ethanamine]	< 10
Cc1nc(C(=O)c2cc(C#N)ccc2-c2ncc(CN)cn2)cc(N2CCOCC2)n1 [compound 1053, 4-[5-(aminomethyl)pyrimidin-2-yl]-3-(2-methyl-6-morpholin-4-ylpyrimidine-4-carbonyl)benzonitrile]	> 1000
Cc1nc(Oc2cc(C#N)ccc2-c2ccc(C(O)CN(C)C)cc2)cc(-c2ccccc2)n1 (stereo not shown) [Compound 96, 4-[4-[2-(dimethylamino)-1-hydroxyethyl]phenyl]-3-(2-methyl-6-phenylpyrimidin-4-yl)oxybenzonitrile]	> 1000
Cc1nc(Oc2cc(C#N)ccc2-c2ccc(CCN)cc2)cc(N2CC(F)(F)C(F)(F)C2)n1 [Compound 26, 4-[4-(2-aminoethyl)phenyl]-3-[2-methyl-6-(3,3,4,4-tetrafluoropyrrolidin-1-yl)pyrimidin-4-yl]oxybenzonitrile]	< 10
Cn1nc(-c2ccccc2)cc1Oc1cc(C#N)ccc1-c1ccc(CN)cn1 [Compound 289, 4-[5-(aminomethyl)pyridin-2-yl]-3-(2-methyl-5-phenylpyrazol-3-yl)oxybenzonitrile]	< 10
Cc1cc(Cc2cc(C#N)ccc2-c2ncc(CCN)cn2)cc(N2CCOCC2)n1 [compound 1204, 4-[5-(2-aminoethyl)pyrimidin-2-yl]-3-[(2-methyl-6-morpholin-4-ylpyridin-4-yl)methyl]benzonitrile]	10 to 1000
Cn1nc(-c2ccccn2)cc1Oc1cc(C#N)ccc1-c1ncc(CN)s1 [compound 521, 4-[5-(aminomethyl)-1,3-thiazol-2-yl]-3-(2-methyl-5-pyridin-2-ylpyrazol-3-yl)oxybenzonitrile]	< 10
N#Cc1ccc(-c2ccc(CCN)cn2)c(Oc2nnc(C(F)(F)F)s2)c1 [Compound No. 712, 4-[5-(2-Aminoethyl)pyridin-2-yl]-3-[[5-(trifluoromethyl)-1,3,4-thiadiazol-2-yl]oxy]benzonitrile]	10 to 1000
N#Cc1ccc(-c2ncc(CN)cn2)c(Oc2nnc(-c3ccccc3)s2)c1 [compound 705, 4-[5-(aminomethyl)pyrimidin-2-yl]-3-[(5-phenyl-1,3,4-thiadiazol-2-yl)oxy]benzonitrile]	10 to 1000

— patent US20230167073A1 (Teijin Pharma Limited, priority 2020, published 2023)
